{"source": "paper PMC8571282", "about": "(Nature Communications, 2021)", "key": {"SARS-CoV-2 WA1/2020": {"tested_on": "SARS-CoV-2 WA1/2020", "assay_type": "in vivo, ferret (Mustela putorius furo)", "conditions": "for Transform of Nasal lavage titer, Mean 2 (treated group) / Transform of Nasal lavage titer, Mean Diff. (Vehicle vs. treated): Fig 3b; for Transform of Nasal Lavage RNA copies, Mean 2 (treated group) / Transform of Nasal Lavage RNA copies, Mean Diff. (Vehicle vs. treated): Fig 3f, 5mg/kg b.i.d."}, "[1]": {"assay_type": "in vivo, ferret (Mustela putorius furo)", "conditions": "for Bodyweight, Mean 2 (treated group) / Bodyweight, Mean Diff. (Vehicle vs. treated): Fig 3e; for Bodyweight, Mean 2 (treated group) / Bodyweight, Mean Diff. (Vehicle vs. treated) / Temperature, Mean 2 (treated group) / Temperature, Mean Diff. (Vehicle vs. treated): 5 mg/kg, b.i.d.; for Temperature, Mean 2 (treated group) / Temperature, Mean Diff. (Vehicle vs. treated): Fig 3d"}}, "note": "“And” between values parts separate entries of the source, which are not always exact repeats. Equal values may be shown once. Read-outs that look alike come from different tables or passages of the source. Wherever Transform of Nasal Lavage RNA copies, Mean 2 (treated group) is given: unit not given here. Wherever Transform of Nasal Lavage RNA copies, Mean Diff. (Vehicle vs. treated) is given: unit not given here. Wherever Transform of Nasal lavage titer, Mean 2 (treated group) is given: unit not given here. Wherever Transform of Nasal lavage titer, Mean Diff. (Vehicle vs. treated) is given: unit not given here."}
{"smiles": "CC(C)C(=O)OC[C@H]1O[C@@H](n2ccc(NO)nc2=O)[C@H](O)[C@@H]1O", "note": "[EIDD-2801/molnupiravir, reference compound]", "values": [{"measurement": "Transform of Nasal lavage titer, Mean 2 (treated group)", "setting": "SARS-CoV-2 WA1/2020; Day 0, 5 mg/kg, b.i.d.", "value": 0.699}, {"measurement": "Transform of Nasal lavage titer, Mean Diff. (Vehicle vs. treated)", "setting": "SARS-CoV-2 WA1/2020; Day 0, 5 mg/kg, b.i.d.", "value": 0}, {"measurement": "Transform of Nasal lavage titer, Mean 2 (treated group)", "setting": "SARS-CoV-2 WA1/2020; Day 0.5, 5 mg/kg, b.i.d.", "value": 2.389}, {"measurement": "Transform of Nasal lavage titer, Mean Diff. (Vehicle vs. treated)", "setting": "SARS-CoV-2 WA1/2020; Day 0.5, 5 mg/kg, b.i.d.", "value": 0.206}, {"measurement": "Transform of Nasal lavage titer, Mean 2 (treated group)", "setting": "SARS-CoV-2 WA1/2020; Day 1, 5 mg/kg, b.i.d.", "value": 2.25}, {"measurement": "Transform of Nasal lavage titer, Mean Diff. (Vehicle vs. treated)", "setting": "SARS-CoV-2 WA1/2020; Day 1, 5 mg/kg, b.i.d.", "value": 1.457}, {"measurement": "Transform of Nasal lavage titer, Mean 2 (treated group)", "setting": "SARS-CoV-2 WA1/2020; Day 1.5, 5 mg/kg, b.i.d.", "value": 2.025}, {"measurement": "Transform of Nasal lavage titer, Mean Diff. (Vehicle vs. treated)", "setting": "SARS-CoV-2 WA1/2020; Day 1.5, 5 mg/kg, b.i.d.", "value": 2.631}, {"measurement": "Transform of Nasal lavage titer, Mean 2 (treated group)", "setting": "SARS-CoV-2 WA1/2020; Day 2, 5 mg/kg, b.i.d.", "value": 1.683}, {"measurement": "Transform of Nasal lavage titer, Mean Diff. (Vehicle vs. treated)", "setting": "SARS-CoV-2 WA1/2020; Day 2, 5 mg/kg, b.i.d.", "value": 2.587}, {"measurement": "Transform of Nasal lavage titer, Mean 2 (treated group)", "setting": "SARS-CoV-2 WA1/2020; Day 2.5, 5 mg/kg, b.i.d.", "value": 2.004}, {"measurement": "Transform of Nasal lavage titer, Mean Diff. (Vehicle vs. treated)", "setting": "SARS-CoV-2 WA1/2020; Day 2.5, 5 mg/kg, b.i.d.", "value": 2.196}, {"measurement": "Transform of Nasal lavage titer, Mean 2 (treated group)", "setting": "SARS-CoV-2 WA1/2020; Day 3, 5 mg/kg, b.i.d.", "value": 1.551}, {"measurement": "Transform of Nasal lavage titer, Mean Diff. (Vehicle vs. treated)", "setting": "SARS-CoV-2 WA1/2020; Day 3, 5 mg/kg, b.i.d.", "value": 2.25}, {"measurement": "Transform of Nasal lavage titer, Mean 2 (treated group)", "setting": "SARS-CoV-2 WA1/2020; Day 3.5, 5 mg/kg, b.i.d.", "value": 1.802}, {"measurement": "Transform of Nasal lavage titer, Mean Diff. (Vehicle vs. treated)", "setting": "SARS-CoV-2 WA1/2020; Day 3.5, 5 mg/kg, b.i.d.", "value": 2.074}, {"measurement": "Transform of Nasal lavage titer, Mean 2 (treated group)", "setting": "SARS-CoV-2 WA1/2020; Day 4, 5 mg/kg, b.i.d.", "value": 1.119}, {"measurement": "Transform of Nasal lavage titer, Mean Diff. (Vehicle vs. treated)", "setting": "SARS-CoV-2 WA1/2020; Day 4, 5 mg/kg, b.i.d.", "value": 2.869}, {"measurement": "Transform of Nasal Turbinate titer, Mean 2 (treated group)", "setting": "SARS-CoV-2 WA1/2020; Fig 3c, 5 mg/kg, b.i.d.", "value": 2.801}, {"measurement": "Transform of Nasal Turbinate titer, Mean Diff. (Vehicle vs. treated)", "setting": "SARS-CoV-2 WA1/2020; Fig 3c, 5 mg/kg, b.i.d.", "value": 3.122}, {"measurement": "Transform of Nasal Lavage RNA copies, Mean 2 (treated group)", "setting": "SARS-CoV-2 WA1/2020; Row 1 (time)", "value": 0}, {"measurement": "Transform of Nasal Lavage RNA copies, Mean Diff. (Vehicle vs. treated)", "setting": "SARS-CoV-2 WA1/2020; Row 1 (time)", "value": 0}, {"measurement": "Transform of Nasal Lavage RNA copies, Mean 2 (treated group)", "setting": "SARS-CoV-2 WA1/2020; Row 2 (time)", "value": 4.936}, {"measurement": "Transform of Nasal Lavage RNA copies, Mean Diff. (Vehicle vs. treated)", "setting": "SARS-CoV-2 WA1/2020; Row 2 (time)", "value": 0.6755}, {"measurement": "Transform of Nasal Lavage RNA copies, Mean 2 (treated group)", "setting": "SARS-CoV-2 WA1/2020; Row 3 (time)", "value": 4.762}, {"measurement": "Transform of Nasal Lavage RNA copies, Mean Diff. (Vehicle vs. treated)", "setting": "SARS-CoV-2 WA1/2020; Row 3 (time)", "value": 1.379}, {"measurement": "Transform of Nasal Lavage RNA copies, Mean 2 (treated group)", "setting": "SARS-CoV-2 WA1/2020; Row 4 (time)", "value": 4.913}, {"measurement": "Transform of Nasal Lavage RNA copies, Mean Diff. (Vehicle vs. treated)", "setting": "SARS-CoV-2 WA1/2020; Row 4 (time)", "value": 0.7124}, {"measurement": "Transform of Nasal Lavage RNA copies, Mean 2 (treated group)", "setting": "SARS-CoV-2 WA1/2020; Row 5 (time)", "value": 4.419}, {"measurement": "Transform of Nasal Lavage RNA copies, Mean Diff. (Vehicle vs. treated)", "setting": "SARS-CoV-2 WA1/2020; Row 5 (time)", "value": 1.314}, {"measurement": "viral RNA copies in nasal lavages and turbinates vs vehicle", "setting": "SARS-CoV-2 WA1/2020; in vivo", "value": "statistically significant mean reduction"}, {"measurement": "virus burden in the turbinates", "setting": "SARS-CoV-2 WA1/2020; in vivo", "value": "approached the limit of detection"}, {"measurement": "virus shedding in nasal lavages", "setting": "SARS-CoV-2 WA1/2020; in vivo", "value": "near-detection level"}, {"measurement": "Bodyweight, Mean 2 (treated group)", "setting": "[1]; Row 1 (time)", "value": 100}, {"measurement": "Bodyweight, Mean Diff. (Vehicle vs. treated)", "setting": "[1]; Row 1 (time)", "value": 0}, {"measurement": "Bodyweight, Mean 2 (treated group)", "setting": "[1]; Row 2 (time)", "value": 104}, {"measurement": "Bodyweight, Mean Diff. (Vehicle vs. treated)", "setting": "[1]; Row 2 (time)", "value": -3.257}, {"measurement": "Bodyweight, Mean 2 (treated group)", "setting": "[1]; Row 3 (time)", "value": 103.5}, {"measurement": "Bodyweight, Mean Diff. (Vehicle vs. treated)", "setting": "[1]; Row 3 (time)", "value": -2.179}, {"measurement": "Bodyweight, Mean 2 (treated group)", "setting": "[1]; Row 4 (time)", "value": 103.9}, {"measurement": "Bodyweight, Mean Diff. (Vehicle vs. treated)", "setting": "[1]; Row 4 (time)", "value": -1.728}, {"measurement": "Bodyweight, Mean 2 (treated group)", "setting": "[1]; Row 5 (time)", "value": 105.6}, {"measurement": "Bodyweight, Mean Diff. (Vehicle vs. treated)", "setting": "[1]; Row 5 (time)", "value": -3.149}, {"measurement": "Temperature, Mean 2 (treated group)", "setting": "[1]; Row 1 (time)", "value": 38.55}, {"measurement": "Temperature, Mean Diff. (Vehicle vs. treated)", "setting": "[1]; Row 1 (time)", "value": 0.6}, {"measurement": "Temperature, Mean 2 (treated group)", "setting": "[1]; Row 2 (time)", "value": 38.7}, {"measurement": "Temperature, Mean Diff. (Vehicle vs. treated)", "setting": "[1]; Row 2 (time)", "value": -0.025}, {"measurement": "Temperature, Mean 2 (treated group)", "setting": "[1]; Row 3 (time)", "value": 38.58}, {"measurement": "Temperature, Mean Diff. (Vehicle vs. treated)", "setting": "[1]; Row 3 (time)", "value": 0.1}, {"measurement": "Temperature, Mean 2 (treated group)", "setting": "[1]; Row 4 (time)", "value": 38.6}, {"measurement": "Temperature, Mean Diff. (Vehicle vs. treated)", "setting": "[1]; Row 4 (time)", "value": 0.05}, {"measurement": "Temperature, Mean 2 (treated group)", "setting": "[1]; Row 5 (time)", "value": 38.53}, {"measurement": "Temperature, Mean Diff. (Vehicle vs. treated)", "setting": "[1]; Row 5 (time)", "value": 0.05}, {"measurement": "Body temperature (Fig 3D)", "setting": "[1]; in vivo", "value": "39.3 and 38.7 and 38.2 and 38.6 and 38.9 and 38.4 and 37.8"}]}
